# Legend:
# P450RAI-3 [1] = target: T1, P450RAI-3 (Homo sapiens, UniProt Q6V0L0, F447L); assay: [3H]-RA-metabolism inhibition in Sf9-Bac-P450RAI-3 insect microsomes; assay type: biochemical; settings: 2 nM [3H]-RA, NADPH, 1 hour, read-out: ID50 (nM) Sf9-P450RAI-3
# T1 sequence (Q6V0L0 1-522 F447L): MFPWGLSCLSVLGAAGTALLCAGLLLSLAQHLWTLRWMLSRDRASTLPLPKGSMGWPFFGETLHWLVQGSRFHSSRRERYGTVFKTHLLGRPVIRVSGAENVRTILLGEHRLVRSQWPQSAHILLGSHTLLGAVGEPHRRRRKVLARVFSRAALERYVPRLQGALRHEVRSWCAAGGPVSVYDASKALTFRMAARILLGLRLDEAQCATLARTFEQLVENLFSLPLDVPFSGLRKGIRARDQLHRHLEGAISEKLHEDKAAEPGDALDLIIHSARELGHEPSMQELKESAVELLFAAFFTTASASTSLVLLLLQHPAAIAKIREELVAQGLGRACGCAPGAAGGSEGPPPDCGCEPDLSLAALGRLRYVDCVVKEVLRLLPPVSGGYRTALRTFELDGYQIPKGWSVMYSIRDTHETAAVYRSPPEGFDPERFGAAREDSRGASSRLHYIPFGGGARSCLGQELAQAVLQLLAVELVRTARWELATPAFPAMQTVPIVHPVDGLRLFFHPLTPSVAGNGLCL
# Procedure: Microsomes from P450RAI-3 and CYP26B infected Sf-9 cells were made as follows: exponentially growing cells were harvested, washed with ice-cold PBS, counted then homogenized and sonicated in lysis buffer containing protease inhibitors cocktail (10^8 cells par 5 ml lyses buffer). Since P450RAI-3 is a microsomal cytochrome, it preferably uses NADPH cytochromic P450 reductase and a flavoprotein for activity. The microsomes were isolated by differential centrifugations (10 min at 800×g, than 10 min at 10,000×g and finally the postmitichondirial supernatant was centrifuged at 100,000×g for 60 min using ultracentrifuge (Beckman). The microsomal pellet was isolated and homogenized gently in the storage buffer containing protease inhibitors cocktail. Protein concentration in the microsomal preparation was determined using a […] reaction assay kit with BSA as standards (Pierce). The absorbance at 562 nm of standards (BSA at 1, 0.5, 0.25, 0.125, and 0.0625 mg/ml) and 3 dilutions of microsomes samples (⅕, 1/10 and 1/20) was determined using an automatic microplate reader (μQuant, BioTek instruments Inc.). The protein concentration directly calculated by the software (KCJunior). […] Microsomes were assessed for P450 content by carbon monoxide assay and total P450 content was determined at 3 nmol/ml. […]
# P450RAI-3 [2] = target: T1, P450RAI-3; assay: LC/MS analysis of ATRA and 9-cis-RA metabolism in Hela-P450RAI-3 stable cells; settings: 5 hours
# Procedure: After 5 hours incubation at 37° C., cells were acidified with acetic acid and total retinoids were extracted using Ethyl acetate method. The organic upper layer was pooled and evaporated in speed-vacuum, and dried residues were dissolved in HPLC mobile solvent and analyzed in LC/MS.
# The HPLC system consisted of a waters alliance 2690 separations module. Chromatography was obtained on an Eclipse X DB-C18 reverse phase column (5 um, 2.1×150 mm from HP). A gradient elution program was used using acetonitrile, water and 10% acetic acid. The flow was held at 0.2 ml/min.
# Mass Spectrometry condition used for this work consisted of a Micro-mass Quatro Ultima Tandem triple quadruple mass spectrometer equipped with electrospray interface (ESI) and operated in a negative mode.
# P450RAI-3 [3] = target: T1, P450RAI-3; assay: [3H]-RA-metabolism inhibition in mammalian microsomes from transient P450RAI-3-transfected Cos cells; assay type: biochemical; design: expressed in transfected cells; host or cells: COS-1 (transient, pcDNA-P450RAI-3, Fugene); settings: read-out: ID50 (nM) P450RAI-3
# Procedure: RA-metabolism activity was assessed using RA-metabolism microsomes-based assay and Bligh Dyer extraction as follows: Using an automatic repeating-pipette, gently thawed and homogenized microsomes were plated in a 48-well plate in final volume of 150 μl of storage buffer containing 0.5 mg/ml BSA. At indicated concentration 2 μl of compound solution was added to the assay and 2 μl of DMSO was added to MS control (quadruplet) and No-MS control. 50 μl of [^3H]-RA solution (30,000 cpm, 2 nM final concentration) was added. The microsomes assay with the compounds and the [^3H]-ATRA were incubated first for 10 min at 37° C., and then the reaction started by adding 20 μl of NADPH solution (or 1 mM final). After 1-hour incubation the reaction was stopped by adding 5 μl of 10% acetic acid. Organic and aqueous soluble radio-labelled metabolites were extracted using the Bligh-Dyer procedure. Saturated activity obtained in presence of NADPH at 5 μg of microsomes, FIG. 14.
# Microsomes prepared from either stable Hela-CYP26-B or transient P450RAI-3-transfected Cos cells were used.
smiles,measurement,setting,value
"CC1=C(/C=C/C(C)=C/C=C/C(C)=C/C(=O)O)C(C)(C)CCC1 [ATRA, all-trans-retinoic-acid]",IC50,P450RAI-3 [1],20 nM
same,metabolites formed by P450RAI-3,P450RAI-3 [2],hydroxy and oxo-metabolites
same,IC50,P450RAI-3 [3],20 nM
